In US8486968B2, “Compounds” (Boehringer Ingelheim International GmbH, priority 2010, dated 2013):

How the values were obtained:
mPGES-1 [1] = target: T1, mPGES-1 (Homo sapiens, UniProt O14684); assay: A549 cell-based assay (PGE2 formation, IL-1β stimulated, 50% human serum); parameters: host or cells: A549 cells; conditions: A549 cells, IL-1β 5 ng/ml, 20-24 h, Table B, read-out: mPGES-1 inhibitory effect, IC50, cell assay
T1 sequence (O14684 1-152): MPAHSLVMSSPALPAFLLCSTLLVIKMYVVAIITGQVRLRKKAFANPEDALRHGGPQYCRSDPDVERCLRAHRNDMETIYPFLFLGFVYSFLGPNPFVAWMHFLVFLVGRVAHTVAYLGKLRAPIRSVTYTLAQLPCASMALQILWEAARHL
Method: Although the enzymatic assay is a high throughput assay the disadvantage is that it uses a recombinant protein which is not in its natural environment. Accordingly a cellular assay was established in which a cell line of human origin (A549) expressing the mPGES-1 protein was used. In addition in order to mimic the situation in humans in which compounds can be bound to plasma proteins 50% human serum is added in the assay. By having the combination of testing mPGES-1 in a cellular environment and the presence of 50% human serum this assay has a higher relevance to judge the therapeutic potential of a mPGES-inhibitor than the pure enzyme assay.
A549 cells (ATCC: CCL-185) are grown to about 90% confluence in F-12K Nutrient Mixture (Kaighn's Mod. Gibco) containing 10% FBS in a humified incubator at 37° C. and 5% CO2. Cells were detached using Trypsin-EDTA. A549 cells were seeded in a 384-well collagene plate at a density of 7000 cells/well (50 μl) in F-12 medium containing 1% Penicillin-Streptomycin and 50% human serum. The cells were allowed to attach for 3-4 h. After that the cells were incubated for 20-24 h in F-12k medium supplemented with 50% human serum, 1% Penicillin-Streptomycin and containing IL-1β at a final concentration of 5 ng/ml as well as 10 nM arachidonic acid in the presence of a vehicle or a test compound. The total volume is 100 μl.
Concentrations of PGE2 in the cell free medium (10 μl) were measured using a commercially available HTRF kit from Cisbio (as described above). The PGE2 formation in the absence of test compound was taken as 100%.
IC50 values were derived from at 6-8 point titrations using conventional software.

mPGES-1 [2] = target: T1, mPGES-1; assay: mPGES-1 enzyme assay (HTRF detection of PGE2); assay type: biochemical; parameters: made in house; host or cells: Rosetta E. coli (membrane/microsome fraction); conditions: recombinant human mPGES-1 microsomes, PGH2 2 μM, Table A; read-out: mPGES-1 inhibitory effect, IC50, enzyme assay
Method: Microsomes from Rosetta E. coli bacteria expressing recombinant human mPGES-1 can be derived as described below:
Inoculate 5 ml LB with Ampicilin (50 μg/ml) and Chloramphenicol (34 μg/ml) with bacteria from freeze culture. Incubate 8 h at 37° C. with 200 rpm. Thereafter, inoculate 500-1000 ml LB containing Amp and Chloro with the 5 ml on culture and grow to OD640 of 0.8-1.0. Chill the culture to +4° C. before induction. Induce the culture with IPTG at a final concentration of 400 μM. Express the protein at room temp 18-23° C. with 200 rpm shaking over night.
The following steps can be performed on the following day: • 1. Spin down the cells in 250 ml centrifuge flasks for 15 min at 7000 rpm (Beckmann Coulte Avanti J-E centrifuge) • 2. Dissolve the pellet from 250 ml culture in 12.5 ml homogenization buffer • 3. (15 mM Tris-HCL pH8, 1 mM EDTA pH8, […], 2.5 mM GSH, 1 Tablet Protease inhibitor per 50 ml buffer) • 4. Disintegrate the cells by sonication, 5×10 seconds at 48% amplitude of a 750 W sonifier • 5. Add 2.5 ml MgCl2 (100 mM) and DNase 12.5 μl (0.8 mg/ml) and incubate on ice for 30 min • 6. Spin down the bacteria debris and save the supernatant, 7000 rpm for 15 min • 7. Isolate the protein containing membranes in the supernatant by ultracentrifugation 120000×g for 2 hour at 4° C. (Sorvall T880 rotor). • 8. Discard the supernatant and dissolve the pellet in 20 mM Potassium phosphate buffer pH 7.4 (KH2PO4 and K2HPO4) buffer by sonication (5×10 s, 30% of a 50 W sonifier) and aliquot the enzyme and store aliquots at −80° C.
Before each experiment is performed an aliquot of the enzyme is thawed and it can then be dissolved in 0.1 M Potassium phosphate buffer pH7.4 (KH2PO4 and K2HPO4) buffer containing 2.5 mM GSH.
The aim of this assay is the determine the affinity of a test compound for the mPGES-1 enzyme.
47 μl of recombinant human mPGES-1 (˜0.5 μg protein/well) containing microsomal suspension in a buffer containing GSH, (2.5 mmol/L L-Glutathione reduced, dissolved in 0.1 mol/L Phosphat Buffer pH 7.4) is dispensed in a 384-well plate and thereafter 1 μl of the test compound(s) is/are added and incubated for 25 minutes at room temperature. The enzyme reaction is started by the addition of 2 μl PGH2 (final conc. 2 μM) dissolved in water-free Diglyme. After 60 seconds the reaction is terminated by addition of a stop solution containing FeCl2 (10 μL 0.074 mol/l FeCl2). The samples are diluted between 1:25 in PBS (Phosphate Buffered Saline). 10 μl of the diluted samples are transferred to 384-well low volume plate. In order to quantify the amount of PGE2 that has been formed, a homogenous time resolved fluorescent (HTRF) detecting of PGE2 has been performed using a commercially available kit from Cisbio according to the manufactures recommendation. This HTRF-based assay has been described in detail (see: Goedken et al., J Biomol Screen, 2008, 13(7), 619-625). Briefly, the diluted samples are mixed with 5 μl PGE2-d2 conjungate and 5 μl anti-PGE2 cryptate conjungate. After an incubation period of the plates over night, the fluorescence is measured by the use of an appropriate microplate reader.
The fluorescence of Europium cryptate (maxex=307 nm, maxem=620 nm) and d2-PGE2 (maxex=620 nm, maxem=665 nm) are measured.
The extent of the specific HTRF is measured as a ratio of the emission intensity at 665 nm vs. that at 620 nm at an excitation puls of 320 nm. The quantification plate contains also wells with different concentrations of PGE2 as calibration curve for the calculation of the PGE2 concentrations from the HTRF ratio values.
From all mPGES enzyme assay the background is subtracted and the IC50 is calculated over a nonlinear regression with conventional software.

SMILES	IC50 (mPGES-1 [1])	IC50 (mPGES-1 [2])
CC(C)(C)C(=O)NCc1cc(F)c(Cl)c(Nc2nc3cc(C(=O)N[C@H]4CC[C@H](C(F)(F)F)CC4)c(N4CCC(F)CC4)nc3[nH]2)c1Cl [Example 15, N-(trans-4-Trifluoromethyl-cyclohexyl)-2-{2,6-dichloro-5-fluoro-3-[(2,2-dimethyl-propionylamino)-methyl]-phenylamino}-5-[4-fluoro-piperidinyl]-3H-imidazo[4,5-b]pyridine-6-carboxamide]	10 nM	2 nM
CN(Cc1nccn1C)c1nc2c(cc1C(=O)N[C@H]1CC[C@H](C(F)(F)F)CC1)nc(Nc1c(Cl)ccc(CNC(=O)C(C)(C)C)c1Cl)n2C [Example 16]	3 nM	3 nM
Cn1c(Nc2c(Cl)ccc(CNC(=O)C(C)(C)C)c2Cl)nc2cc(C(=O)N[C@H]3CC[C@H](C(F)(F)F)CC3)c(N3CC[C@@H](F)C3)nc21 [Example 18]	2 nM	2 nM
Cn1c(Nc2c(Cl)ccc(CNC(=O)C(C)(C)C(F)(F)F)c2Cl)nc2cc(C(=O)N[C@H]3CC[C@H](C(F)(F)F)CC3)c(N3CC[C@@H](F)C3)nc21 [Example 19]	6 nM	4 nM
CN(c1nc2c(cc1C(=O)N[C@H]1CC[C@H](C(F)(F)F)CC1)nc(Nc1c(Cl)ccc(CNC(=O)C(C)(C)C)c1Cl)n2C)C1COC1 [Example 20]	3 nM	2 nM
CN(Cc1nncn1C)c1nc2c(cc1C(=O)N[C@H]1CC[C@H](C(F)(F)F)CC1)nc(Nc1c(Cl)ccc(CNC(=O)C(C)(C)C)c1Cl)n2C [Example 21]	90 nM	4 nM
CN(CC1(C)COC1)c1nc2c(cc1C(=O)N[C@H]1CC[C@H](C(F)(F)F)CC1)nc(Nc1c(Cl)ccc(CNC(=O)C(C)(C)C)c1Cl)n2C [Example 22]	15 nM	3 nM
Cn1c(Nc2c(Cl)ccc(CNC(=O)C(C)(C)C)c2Cl)nc2cc(C(=O)N[C@H]3CC[C@H](C(F)(F)F)CC3)c(N(CC3CC3)C3CC3)nc21 [Example 23]	5 nM	1 nM
Cn1c(Nc2c(Cl)ccc(CNC(=O)C(C)(C)C)c2Cl)nc2cc(C(=O)Nc3ccc(OC(F)(F)F)cc3)c(N3CCC(C(F)(F)F)CC3)nc21 [Example 24, N-(4-Trifluoromethoxyphenyl)-2-{2,6-dichloro-3-[(2,2-dimethyl-propionylamino)-methyl]-phenylamino}-5-[4-trifluoromethyl-piperidinyl]-3-methyl-3H-imidazo[4,5-b]pyridine-6-carboxamide]	5 nM	1 nM
CC(C)(C)C(=O)NCc1ccc(Cl)c(Nc2nc3cc(C(=O)N[C@H]4CC[C@H](C(F)(F)F)CC4)c(N4CCOCC4)nc3n2CC(F)F)c1Cl [Example 25]	7 nM	4 nM
CN(C)C(=O)Cn1c(Nc2c(Cl)ccc(CNC(=O)C(C)(C)C)c2Cl)nc2cc(C(=O)N[C@H]3CC[C@H](C(F)(F)F)CC3)c(N3CCC(C(F)(F)F)CC3)nc21 [Example 29]	39 nM	10 nM
CC(NC(=O)c1cc2nc(Nc3c(Cl)ccc(CNC(=O)C(C)(C)C)c3Cl)n(C)c2nc1N1CCC(C(F)(F)F)CC1)C(F)(F)F (centres unmarked) [Example 31]	20 nM	3 nM
Cn1c(Nc2c(Cl)ccc(CNC(=O)C(C)(C)C)c2Cl)nc2cc(C(=O)NCC(F)(F)F)c(N3CCC(C(F)(F)F)CC3)nc21 [Example 32]	12 nM	4 nM
Cn1c(Nc2c(Cl)ccc(CNC(=O)C(C)(C)C)c2Cl)nc2cc(C(=O)NCCCC(F)(F)F)c(N3CCC(C(F)(F)F)CC3)nc21 [Example 33]	8 nM	2 nM
Cn1c(Nc2c(Cl)ccc(CNC(=O)C(C)(C)C)c2Cl)nc2cc(C(=O)NCC(F)(F)C(F)(F)F)c(N3CCC(C(F)(F)F)CC3)nc21 [Example 34]	10 nM	2 nM
Cn1c(Nc2c(Cl)ccc(CNC(=O)C(C)(C)C)c2Cl)nc2cc(C(=O)NC3CC(F)(F)C3)c(N3CCC(C(F)(F)F)CC3)nc21 [Example 35]	16 nM	5 nM
Cn1c(Nc2c(Cl)ccc(CNC(=O)C(C)(C)C)c2Cl)nc2cc(C(=O)N[C@H](c3ccccc3)C(F)(F)F)c(N3CCC(C(F)(F)F)CC3)nc21 [Example 36]	6 nM	2 nM
Cn1c(Nc2c(Cl)ccc(CNC(=O)C(C)(C)C)c2Cl)nc2cc(C(=O)NC3(c4ccc(F)cc4)CC3)c(N3CCC(C(F)(F)F)CC3)nc21 [Example 37]	8 nM	3 nM
Cn1c(Nc2c(Cl)ccc(CNC(=O)C(C)(C)C)c2Cl)nc2cc(C(=O)NCc3ccc(F)cc3C(F)(F)F)c(N3CCC(C(F)(F)F)CC3)nc21 [Example 38]	16 nM	2 nM
Cn1c(Nc2c(Cl)ccc(CNC(=O)C(C)(C)C)c2Cl)nc2cc(C(=O)Nc3cccc(OC(F)(F)F)c3)c(N3CCC(C(F)(F)F)CC3)nc21 [Example 40]	13 nM	3 nM
Cn1c(Nc2c(Cl)ccc(CNC(=O)C(C)(C)C)c2Cl)nc2cc(C(=O)Nc3ccc(F)c(Cl)c3)c(N3CCC(C(F)(F)F)CC3)nc21 [Example 41]	2 nM	1 nM
Cn1c(Nc2c(Cl)ccc(CNC(=O)C(C)(C)C)c2Cl)nc2cc(C(=O)NC(c3ccccn3)C(F)(F)F)c(N3CCC(C(F)(F)F)CC3)nc21 (centres unmarked) [Example 42]	4 nM	2 nM
Cn1c(Nc2c(Cl)ccc(CNC(=O)C(C)(C)C)c2Cl)nc2cc(C(=O)NCc3ncccc3C(F)(F)F)c(N3CCC(C(F)(F)F)CC3)nc21 [Example 43]	6 nM	5 nM
Cn1c(Nc2c(Cl)ccc(CNC(=O)C(C)(C)C)c2Cl)nc2cc(C(=O)Nc3cccc(C(F)(F)F)n3)c(N3CCC(C(F)(F)F)CC3)nc21 [Example 44]	56 nM	4 nM
CC(NC(=O)c1cc2nc(Nc3c(Cl)ccc(CNC(=O)C(C)(C)C)c3Cl)n(C)c2nc1N1CCC(C(F)(F)F)CC1)c1cccs1 (centres unmarked) [Example 45]	12 nM	4 nM
